For test [1], the target named is T1, 5HT1A receptor (Homo sapiens, UniProt P08908).
T1 construct: expressed in transfected cells; host or cells: transgenic Xenopus laevis tadpoles (rod cells; homogenized membranes), transgene pXOP-5HTR-GFP-1D4
Description: [35S]GTPγS binding to transgenic tadpole membranes expressing 5HT1A. Type of test: biochemical. As to the method: (§1) A receptor binding assay was performed to determine retention of functional receptor using [^35S]GTPγS labeled receptor ligand. Transgenic tadpoles (stage 48 or older) or CHO cells expressing 5HT1A receptors were homogenized in binding buffer (20 mM HEPES, pH 7.4, 10 mM MgCl2, 1 mM EDTA, 100 mM NaCl). The binding assay was performed in 96-well Scintiplate (PerkinElmer). To reduce [^35S]-GTPγS binding to rhodopsin-activated transducin in retina membrane, the membrane from tadpoles was preincubated with 10 mM hydroxylamine in binding buffer at room temperature for 60 min. The membranes (25 μg/well) were incubated with indicated ligands for 30 min in a total volume of 150 μl binding buffer containing 10 μM GDP, 0.5% BSA, 1 mM DTT), then 50 μl of […] [^35S]-GTPγS was added to each well to make a final concentration of 200 pM. The binding assays were carried out at room temperature for 60 min under gentle shaking. Final concentration of hydroxylamine in binding assay should be no more than 1 mM, Nonspecific binding was determined in the presence of 10 μM unlabelled GTPγS. Assays were terminated by centrifugation at 4000 g for 15 min and removal of supernatant. The radioactivity was measured by a TopCounter (PerkinElmer). Assays were performed in triplicate. […]
For orientation: GTPγS resists hydrolysis and so accumulates on activated G proteins.
T1 sequence (P08908 with tags, fused parts or gaps): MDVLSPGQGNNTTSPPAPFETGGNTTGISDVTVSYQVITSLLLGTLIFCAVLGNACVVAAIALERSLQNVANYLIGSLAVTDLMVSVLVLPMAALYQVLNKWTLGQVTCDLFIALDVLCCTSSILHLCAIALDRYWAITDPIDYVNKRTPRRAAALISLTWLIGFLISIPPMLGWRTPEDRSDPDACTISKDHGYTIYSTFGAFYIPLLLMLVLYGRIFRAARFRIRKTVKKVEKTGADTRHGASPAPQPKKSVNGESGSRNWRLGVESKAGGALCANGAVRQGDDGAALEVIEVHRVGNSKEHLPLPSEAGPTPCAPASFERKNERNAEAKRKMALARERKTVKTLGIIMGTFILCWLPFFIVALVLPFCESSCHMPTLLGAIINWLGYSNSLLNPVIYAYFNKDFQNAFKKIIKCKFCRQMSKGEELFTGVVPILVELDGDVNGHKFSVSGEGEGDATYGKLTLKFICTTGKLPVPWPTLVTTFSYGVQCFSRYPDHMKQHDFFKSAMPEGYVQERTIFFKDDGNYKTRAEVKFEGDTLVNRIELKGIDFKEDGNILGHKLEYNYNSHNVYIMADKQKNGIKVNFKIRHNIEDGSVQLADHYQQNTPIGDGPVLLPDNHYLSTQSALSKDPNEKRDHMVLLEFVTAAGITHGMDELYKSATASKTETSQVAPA

In test [2] the target is T2, 5HT1A receptor (Homo sapiens, UniProt P08908).
T2 construct: expressed in transfected cells; host or cells: CHO cells (transient expression)
T2 sequence (P08908 1-422): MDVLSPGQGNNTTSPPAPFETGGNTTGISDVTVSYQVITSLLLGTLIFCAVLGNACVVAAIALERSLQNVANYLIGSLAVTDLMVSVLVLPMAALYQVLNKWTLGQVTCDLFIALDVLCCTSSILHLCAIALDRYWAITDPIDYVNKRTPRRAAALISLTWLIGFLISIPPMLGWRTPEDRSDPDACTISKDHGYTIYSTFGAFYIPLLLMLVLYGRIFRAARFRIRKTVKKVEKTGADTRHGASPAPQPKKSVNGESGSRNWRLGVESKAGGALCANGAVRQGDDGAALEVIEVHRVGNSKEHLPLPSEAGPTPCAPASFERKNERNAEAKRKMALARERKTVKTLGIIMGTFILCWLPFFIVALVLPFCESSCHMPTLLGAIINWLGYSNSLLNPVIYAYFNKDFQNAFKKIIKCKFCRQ
Description: [35S]GTPγS binding to CHO membranes transiently expressing 5HT1A. The note with it: CHO cells expressing 5HT1A. Type of test: biochemical. As to the method: as §1

For test [3], the target named is T3, rhodopsin-transducin interaction (Xenopus laevis, UniProt P29403).
T3 construct: from tissue; host or cells: Xenopus laevis tadpole (retina/ROS) membranes
T3 sequence (P29403 1-354): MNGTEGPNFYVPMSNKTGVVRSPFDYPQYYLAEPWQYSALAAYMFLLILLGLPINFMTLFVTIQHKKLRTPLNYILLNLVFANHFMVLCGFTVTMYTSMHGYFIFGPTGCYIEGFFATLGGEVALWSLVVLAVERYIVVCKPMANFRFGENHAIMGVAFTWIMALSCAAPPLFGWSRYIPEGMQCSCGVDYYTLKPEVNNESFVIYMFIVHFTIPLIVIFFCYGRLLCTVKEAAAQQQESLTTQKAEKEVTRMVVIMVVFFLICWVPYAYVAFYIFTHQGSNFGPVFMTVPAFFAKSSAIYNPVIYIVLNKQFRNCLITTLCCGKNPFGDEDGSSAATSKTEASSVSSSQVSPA
Description: Hydroxylamine inactivation of rhodopsin-mediated basal [35S]GTPγS binding in tadpole ROS membranes. The note with it: 10 mM hydroxylamine, room temperature. It counts as biochemical. As to the method:
as §1

Test [4] has as its system CHO membranes. Description: Hydroxylamine effect on [35S]GTPγS binding to CHO membranes. Type of test: biochemical. To be noted: 10 mM hydroxylamine. As for the experimental part: as §1
Test [5] has as its target T4, 5HT1AR-GFP-1D4 fusion protein (Homo sapiens, UniProt P08908).
T4 construct: expressed in transfected cells; host or cells: transgenic Xenopus laevis tadpoles (rod cells; homogenized membranes), transgene pXOP-5HTR-GFP-1D4
Description: Saturation radioligand binding to transgenic tadpole membranes expressing 5HT1AR-GFP-1D4. As for the experimental part: (§2) Radioligand binding assay were performed using transgenic tadpoles (stage 48 or older) or CHO cells expressing 5HT1A receptors homogenized in binding buffer (50 mM Tris-HCl, pH 7.4, 2 mM MgCl2, 1 mM EDTA and proteinase inhibitor cocktail). The binding assay was performed in 96-well plate with [methyl-^3H]-MPPE as a radioligand. For saturation binding analyses, the membranes (20 μg/well) were incubated with 0.05% saponin in a final volume of 50 μl at room temperature for 10 min, and then incubated with 50 μl of [methyl-^3H]-MPPE (0-50 nM) for another 90 min. Nonspecific binding was determined in the presence of 10 μM serotonin. Assays were terminated by rapid filtration through GF/C filter plate with 4 times washes with washing buffer (20 mM Trics-HCl, pH 7.4). The radioactivity was measured by a TopCount (PerkinElmer). Assays were performed in duplicate.
(§3) Binding assays were performed to confirm that the 5HT1A receptor was expressed as a functional 5HT1AR-GPF-1D4 fusion protein in rod cell ROS of Xenopus tadpoles. Binding affinity was determined by measuring the binding affinity of [methyl-^3H]-MPPF, a radiolabeled selective ligand to the 5HT1A receptor, to the expressed fusion protein. Because the 5HT1A receptor expressed in ROS disk membranes is oriented with the extracellular side facing the interior of these disks and shielded from the solution, the detergent saponin was used to open up pores in these disk membranes and allow access to the ligands. Saponin at a concentration of 0.05% or more could effectively increase specific binding of [methyl-^3H]-MPPE to 5HT1AR transgenic tadpole membranes, but not to control tadpole membranes. […] Based on these observations, 0.05% saponin was included in all ligand binding assays.
(§4) Saturation binding assays were also performed to measure the binding affinity and compare it to 5HT1A receptor expressed in standard mammalian CHO cells. […] The low nanomolar affinity and extent of specific binding further corroborates that the 5HT1A receptor is properly folded in transgenic tadpoles. […]

Test [6] addresses T2, 5HT1A receptor. Description: Saturation radioligand binding to membranes from CHO cells expressing the 5HT1A receptor. To be noted: membrane samples from CHO cells expressing the 5HT1A receptor, read-out: binding affinity KD. As for the experimental part:
as §2
Saturation binding assays were also performed to measure the binding affinity and compare it to 5HT1A receptor expressed in standard mammalian CHO cells. […] The low nanomolar affinity and extent of specific binding further corroborates that the 5HT1A receptor is properly folded in transgenic tadpoles. […] For example, the effect on binding affinity may be due to different ligand kon or koff kinetic parameters, or different partition coefficients to the different lipids present in these membranes.

The target in test [7] is endogenous G proteins in retina rod cells. Description: cell-based or functional assay.
For test [8], the system named is 5HT1AR-GFP-1D4 fusion protein. Description: Saturation radioligand binding to transgenic tadpole membranes expressing 5HT1AR-GFP-1D4. Also on record: species or system human. To be noted: tadpole KD versus CHO KD. As to the method:
as §2, §3, §4

Test [9] addresses transducin in ROS membrane (Xenopus laevis). Description: cell-based or functional assay.

T4 sequence (P08908 with tags, fused parts or gaps): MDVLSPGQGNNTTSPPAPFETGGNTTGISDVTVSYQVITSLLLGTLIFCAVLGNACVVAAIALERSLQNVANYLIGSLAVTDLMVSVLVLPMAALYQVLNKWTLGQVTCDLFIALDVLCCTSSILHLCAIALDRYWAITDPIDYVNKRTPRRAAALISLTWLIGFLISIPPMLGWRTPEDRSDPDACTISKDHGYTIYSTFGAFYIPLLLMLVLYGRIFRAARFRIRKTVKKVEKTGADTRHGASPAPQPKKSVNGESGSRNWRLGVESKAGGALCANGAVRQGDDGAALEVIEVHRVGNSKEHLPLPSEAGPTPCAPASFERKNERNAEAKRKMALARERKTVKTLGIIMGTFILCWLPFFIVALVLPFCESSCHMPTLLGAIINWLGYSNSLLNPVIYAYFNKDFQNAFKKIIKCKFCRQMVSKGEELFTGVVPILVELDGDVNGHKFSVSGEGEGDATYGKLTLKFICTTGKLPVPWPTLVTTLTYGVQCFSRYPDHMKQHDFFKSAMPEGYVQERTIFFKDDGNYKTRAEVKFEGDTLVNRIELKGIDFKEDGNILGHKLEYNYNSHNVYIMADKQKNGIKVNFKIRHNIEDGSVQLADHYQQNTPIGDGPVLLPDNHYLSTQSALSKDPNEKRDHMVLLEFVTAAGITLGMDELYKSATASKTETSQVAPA

For the compound `NCCc1c[nH]c2ccc(O)cc12` [serotonin, 5-hydroxytryptamine], the “stimulation of [35S]GTPγS binding” value in test [1] (tadpole membranes pretreated with 10 mM hydroxylamine) is “about 50%”. Moreover, the “effect on [35S]GTPγS binding” value in [2] was “specifically stimulated”.
As for `NO` [hydroxylamine], the “reduction of basal [35S]GTPγS binding” value in test [3] is roughly 50%. Besides, the “effect on [35S]GTPγS binding” value in test [4] is “without significant effect”.
For `COc1ccccc1N1CCN(CCN(C(=O)c2ccc(F)cc2)c2ccccn2)CC1` [[methyl-^3H]-MPPF], the Kd in [5] (transgenic Xenopus tadpole membranes expressing 5HT1AR-GFP-1D4, 0.05% saponin, saturation binding, read-out: binding affinity KD) came to 6.7 nM; in test [6], 0.35 ± 0.1 nM.
“h5HT1AR-GFP-1D4 fusion protein (from UniProt P08908 1-422) (receptor)” yielded a [^35S]GTPγS binding to transgenic tadpole membranes, stimulated by the agonist serotonin in test [7] of 50%.
For `[3H]C([3H])([3H])Oc1ccccc1N1CCN(CCN(C(=O)c2ccc(F)cc2)c2ccccn2)CC1` [[methyl-^3H]-MPPF], the “specific binding to transgenic 5HT1A tadpole membranes” value in [5] (FIG. 14, 0.05% saponin, nonspecific binding with 10 μM serotonin) is “dose-dependent manner”. The “difference in dissociation constants KD between transgenic tadpoles and CHO cells” value in test [8] is recorded as “about 17 fold”.
For “Xenopus rhodopsin (endogenous, in tadpole eye extracts) (from UniProt P29403 1-354) (receptor)”, the decrease in basal [^35S]GTPγS binding to tadpole membranes after treatment with 10 mM hydroxylamine in test [9] stood at 50%.
Regarding `O=C(CCCN1CCC2(CC1)C(=O)NCN2c1ccccc1)c1ccc(F)cc1` [spiperone], the “effect on [35S]GTPγS binding” value in test [1] (transgenic tadpole membranes) and in test [2] was “significantly block” in each case.

What is called Kd is the constant that tells how readily two partners part at equilibrium.

The record behind these values is US20050091702A1, “Expression of polypeptides in rod outer segment membranes” (priority 2001, published 2005).
